By IC50 is commonly meant the concentration that inhibits the measured activity by half. Higher therefore signals lower potency.

The record followed here is US20090018162A1, “USE OF 6-(3-CHLORO-2-FLUOROBENZYL)-1-[(2S)-1-HYDROXY-3-METHYLBUTAN-2-YL]-7-METHOXY-4-OXO-1,4-DIHYDROQUINOLINE-3-CARBOXYLIC ACID OR SALT THEREOF FOR TREATING RETROVIRUS INFECTION” (priority 2006, published 2009).

Where two headings read alike, the source gives them in different places. Some results are limits rather than exact numbers.

The nature of series [1]: MTS cytotoxicity in monocyte/macrophage cultures. Format: cell-based. The conditions noted are these: human, fresh adherent monocyte/macrophage cultures, HIV-infected, macrophages, MTS, read-out: TC50. As to the method: Anti-HIV Efficacy Evaluation in Fresh Human Monocyte/Macrophage. Monocytes/macrophages were allowed to adhere to the interior 60 wells of a 96 well flat bottomed plate for 2 to 18 hours at 37° C., 5% CO2. Following 6 to 14 days in culture, the monocyte/macrophage cultures were washed 3 times to remove any non-adherent cells and serially diluted test compounds were added followed by the addition of a pre-titered amount of HIV. Cultures were washed a final time by media removal 24 hours post infection, fresh compound added and the cultures continued for an additional six days. […] At assay termination, virus replication was measured by collecting cell-free supernatant samples which were analyzed for HIV p24 antigen content using a commercially available p24 ELISA assay (Coulter). […] MTS staining for PBMC viability to measure cytotoxicity. […] The mitochondrial enzymes of metabolically active cells metabolize MTS to yield a soluble formazan product. This allows the rapid quantitative analysis of cell viability and compound cytotoxicity. […] At termination of the assay, 20 μL of MTS reagent was added per well. The microtiter plates were then incubated 4-6 hrs at 37° C. The incubation intervals were chosen based on empirically determined times for optimal dye reduction. […] Data analysis.

The subject of series [2] is HIV-1 clinical isolates.
Series [3] has as its system HIV-1 macrophage-tropic virus strains.
For series [4], the system named is human PBMCs. To be noted: 7 days.
Series [5] concerns HIV-1 clinical isolates. In words: microbe, parasite or virus in culture. The conditions noted are these: Human immunodeficiency virus 1, PBMC.
The subject of series [6] is HIV-1 macrophage-tropic virus strains. In words: microbe, parasite or virus in culture.
Series [7] concerns HIV-2 CDC 310319. In words: microbe, parasite or virus in culture. To be noted: Human immunodeficiency virus 2, PBMC.
A short description of series [8]: MTS staining for PBMC viability (cytotoxicity). The conditions noted are these: human.
For series [9], the system named is human PBMCs. In words: MTS staining for PBMC viability (cytotoxicity). To be noted: read-out: TC50, PBMCs, MTS.
For series [10], the system named is drug-resistant HIV-1 isolates. In words: Anti-HIV efficacy in fresh human PBMCs, drug-resistant HIV-1 isolates. The conditions noted are these: for IC50: Human immunodeficiency virus 1, PBMC, in Homo sapiens.
Series [11] has as its system recombinant HIV-1 clones (patient protease/RT sequences in HIV-1 NL4-3). In words: microbe, parasite or virus in culture. In kind it is cell-based.
The nature of series [12]: in vitro. The conditions noted are these: human.

With `O=C1Nc2ccc(Cl)cc2[C@@](C#CC2CC2)(C(F)(F)F)O1` [Efavirenz, efavirenz], the CC50 at 7 days in [1] (ADA assay) is greater than 10000 nM; in [1] (Ba-L assay), greater than 10000 nM; in series [8], greater than 1000 nM. Moreover, the “TI (TC50/IC50)” value in series [2] (HIV-1 96USHIPS7 in PBMCs) was greater than 1538.5; in series [2] (HIV-1 BFC01 in PBMCs) it was greater than 1449.3; in series [2] (HIV-1 BR/92/021 in PBMCs), greater than 21.3; in series [2] (HIV-1 BR/92/025 in PBMCs), greater than 3333.3; in series [2] (HIV-1 BR/93/017 in PBMCs) it was greater than 1724.1; in [2] (HIV-1 BR/93/020 in PBMCs) it was greater than 3125.0. In addition, the “TI (TC50/IC50)” value in series [2] (HIV-1 BR/93/022 in PBMCs) is recorded as greater than 1612.9; in [2] (HIV-1 CMU 02 in PBMCs), greater than 549.5; in [2] (HIV-1 JV 1083 in PBMCs), greater than 1538.5; in series [2] (HIV-1 RW/92/016 in PBMCs) it was greater than 1639.3; in series [2] (HIV-1 UG/92/046 in PBMCs), greater than 840.3; in series [3] (HIV-1 ADA in macrophages) it was greater than 2793.3. Further, the “TI (TC50/IC50)” value in series [3] (HIV-1 Ba-L in macrophages) is reported as greater than 4717.0; in series [10] (HIV-1 52-52 in PBMCs) it was greater than 9901.0; in series [10] (HIV-1 144-44 in PBMCs), greater than 1666.7; in [10] (HIV-1 1002-60 in PBMCs), greater than 4761.9; in series [10] (HIV-1 1064-52 in PBMCs), greater than 3448.3; in [10] (HIV-1 MDR 769 in PBMCs) it was greater than 1851.9. The “TI (TC50/IC50)” value in [10] (HIV-1 MDR 807 in PBMCs) is greater than 1408.5. In addition, the CC50 in series [4], in series [9] (52-52 assay), in series [9] (144-44 assay), in series [9] (1002-60 assay), in series [9] (1064-52 assay) and in series [9] (BFC01 assay) was greater than 1000 nM in each case. Besides, the CC50 in series [9] (BR/92/021 assay), in series [9] (BR/92/025 assay), in [9] (BR/93/017 assay), in series [9] (BR/93/020 assay), in series [9] (BR/93/022 assay) and in [9] (CMU 02 assay) was greater than 1000 nM in each case. For the same compound, the CC50 in series [9] (HIV-2 CDC 310319 assay), in [9] (JV 1083 assay), in series [9] (RW/92/016 assay) and in series [9] (UG/92/046 assay) was greater than 1000 nM in each case. Further, the IC50 was 0.65 nM in [5] (HIV-1 96USHIPS7 (subtype /B, R5) in PBMCs); 47 nM in [5] (HIV-1 BR/92/021 (subtype B/B, R5) in PBMCs); 0.58 nM in [5] (HIV-1 BR/93/017 (subtype B/B, R5) in PBMCs); 0.32 nM in [5] (HIV-1 BR/93/020 (subtype F/F, R5/X4) in PBMCs); 0.62 nM in [5] (HIV-1 BR/93/022 (subtype /B, R5) in PBMCs); 1.82 nM in series [5] (HIV-1 CMU 02 (subtype /EA, X4) in PBMCs). In addition, the IC50 in series [5] (HIV-1 JV 1083 (subtype /G, R5) in PBMCs) is 0.65 nM; in series [5] (HIV-1 RW/92/016 (subtype A/A, R5) in PBMCs), 0.61 nM; in series [5] (HIV-1 UG/92/046 (subtype D/D, X4) in PBMCs), 1.19 nM; in series [6] (Human immunodeficiency virus 1, BAL, Macrophage), 2.12 nM; in series [6] (Human immunodeficiency virus 1, Macrophage), 3.58 nM; in series [7], greater than 1000 nM. The IC50 in [10] (HIV-1 52-52 (protease-inhibitor resistant) in PBMCs) was less than 0.1 nM; in [10] (against several viruses (e.g., MDR 1385, MDR 3761) in PBMCs), greater than 1000 nM; in [10] (multi-drug-resistant HIV-1 MDR 769 in PBMCs), 0.54 nM; in series [10] (multi-drug-resistant HIV-1 MDR 807 in PBMCs), 0.71 nM; in series [10] (multi-drug-resistant HIV-1 MDR 1385 in PBMCs) it was greater than 1000 nM; in series [10] (multi-drug-resistant HIV-1 MDR 3761 in PBMCs), greater than 1000 nM.
Turning to `C[C@H](Cn1cnc2c(N)ncnc21)OCP(=O)(O)O` [TFV, Tenofovir], the “Fold-increase (EC50 fold increase above reference clone NL4-3)” value in series [11] (RT mutation 2-5 TAMs, K65 and/or Q151, N=4, averaged) stood at 8.5; in series [11] (RT mutation 2-5 TAMs, N=16, averaged) it was 3.5; in series [11] (RT mutation 2-5 TAMs, T69ins, N=4, averaged), 12.2; in series [11] (RT mutation 6 TAMS, M184, N=7, averaged), 1.6; in [11] (RT mutation 6 TAMs, N=5, averaged), 5.0; in [11] (RT mutation K65 and/or Q151, M184, N=12, averaged), 2.2. Also, the “Fold-increase (EC50 fold increase above reference clone NL4-3)” value in [11] (RT mutation K65 and/or Q151, N=7, averaged) was determined as 4.0; in [11] (RT mutation M184, N=12, averaged) it was 0.6; in series [11] (Wild-type clones, N=8, averaged), 0.8.
In [4], enfuvirtide yielded a CC50 greater than 10000 nM. Besides, the CC50 at 7 days in series [12] was greater than 10000 nM.
